Test results from the NIST ThermoML archive (doi:10.1021/je050175u).

Assay: excess molar enthalpy (molar enthalpy of mixing); xn = mol fraction of the nth substance listed
Conditions: Liquid, Flow calorimetry

COC(C)=O [methyl ethanoate] + CCCCO
excess molar enthalpy [kcal/mol]
Conditions	5000 kPa	10000 kPa
298.15 K, x1 = 0.05	0.0776	0.077
298.15 K, x1 = 0.1	0.145	0.144
298.15 K, x1 = 0.149	0.201	0.2
298.15 K, x1 = 0.199	0.248	–
298.15 K, x1 = 0.201	–	0.249
298.15 K, x1 = 0.249	0.287	–
298.15 K, x1 = 0.251	–	0.288
298.15 K, x1 = 0.3	0.32	0.318
298.15 K, x1 = 0.349	0.343	–
298.15 K, x1 = 0.351	–	0.343
298.15 K, x1 = 0.399	0.359	–
298.15 K, x1 = 0.401	–	0.36
298.15 K, x1 = 0.449	–	0.369
298.15 K, x1 = 0.45	0.37	–
298.15 K, x1 = 0.5	–	0.372
298.15 K, x1 = 0.501	0.372	–
298.15 K, x1 = 0.549	–	0.368
298.15 K, x1 = 0.55	0.368	–
298.15 K, x1 = 0.599	–	0.358
298.15 K, x1 = 0.6	0.359	–
298.15 K, x1 = 0.65	–	0.34
298.15 K, x1 = 0.651	0.341	–
298.15 K, x1 = 0.699	0.316	–
298.15 K, x1 = 0.701	–	0.314
298.15 K, x1 = 0.751	0.284	0.284
298.15 K, x1 = 0.8	–	0.244
298.15 K, x1 = 0.801	0.244	–
298.15 K, x1 = 0.851	0.194	0.196
298.15 K, x1 = 0.899	0.141	0.141
298.15 K, x1 = 0.951	0.0726	0.0726
308.15 K, x1 = 0.047	–	0.0732
308.15 K, x1 = 0.098	–	0.147
308.15 K, x1 = 0.146	–	0.208
308.15 K, x1 = 0.193	–	0.257
308.15 K, x1 = 0.243	–	0.301
308.15 K, x1 = 0.291	–	0.335
308.15 K, x1 = 0.343	–	0.363
308.15 K, x1 = 0.39	–	0.382
308.15 K, x1 = 0.44	–	0.395
308.15 K, x1 = 0.492	–	0.398
308.15 K, x1 = 0.541	–	0.396
308.15 K, x1 = 0.591	–	0.385
308.15 K, x1 = 0.641	–	0.369
308.15 K, x1 = 0.692	–	0.344
308.15 K, x1 = 0.744	–	0.309
308.15 K, x1 = 0.794	–	0.267
308.15 K, x1 = 0.896	–	0.158
308.15 K, x1 = 0.947	–	0.0845

COC(C)=O [methyl ethanoate] + CCCO
excess molar enthalpy [kcal/mol]
Conditions	298.15 K	333.15 K
5000 kPa, x1 = 0.051	0.0748	–
5000 kPa, x1 = 0.099	0.143	–
5000 kPa, x1 = 0.149	0.201	–
5000 kPa, x1 = 0.199	0.248	–
5000 kPa, x1 = 0.251	0.287	–
5000 kPa, x1 = 0.3	0.316	–
5000 kPa, x1 = 0.349	0.338	–
5000 kPa, x1 = 0.4	0.354	–
5000 kPa, x1 = 0.451	0.363	–
5000 kPa, x1 = 0.501	0.364	–
5000 kPa, x1 = 0.551	0.358	–
5000 kPa, x1 = 0.6	0.347	–
5000 kPa, x1 = 0.65	0.33	–
5000 kPa, x1 = 0.701	0.305	–
5000 kPa, x1 = 0.749	0.273	–
5000 kPa, x1 = 0.8	0.236	–
5000 kPa, x1 = 0.85	0.191	–
5000 kPa, x1 = 0.899	0.136	–
5000 kPa, x1 = 0.951	0.0711	–
10000 kPa, x1 = 0.051	0.0813	0.0961
10000 kPa, x1 = 0.099	0.145	0.168
10000 kPa, x1 = 0.149	0.202	–
10000 kPa, x1 = 0.15	–	0.232
10000 kPa, x1 = 0.199	0.248	–
10000 kPa, x1 = 0.2	–	0.287
10000 kPa, x1 = 0.25	0.287	0.329
10000 kPa, x1 = 0.3	0.316	0.363
10000 kPa, x1 = 0.349	0.337	–
10000 kPa, x1 = 0.35	–	0.389
10000 kPa, x1 = 0.399	0.353	0.408
10000 kPa, x1 = 0.448	–	0.418
10000 kPa, x1 = 0.45	0.361	–
10000 kPa, x1 = 0.5	0.362	0.422
10000 kPa, x1 = 0.548	–	0.419
10000 kPa, x1 = 0.55	0.357	–
10000 kPa, x1 = 0.599	0.346	0.405
10000 kPa, x1 = 0.649	0.33	–
10000 kPa, x1 = 0.65	–	0.384
10000 kPa, x1 = 0.7	0.305	0.355
10000 kPa, x1 = 0.749	0.274	–
10000 kPa, x1 = 0.751	–	0.317
10000 kPa, x1 = 0.799	0.237	–
10000 kPa, x1 = 0.801	–	0.271
10000 kPa, x1 = 0.849	0.189	–
10000 kPa, x1 = 0.85	–	0.215
10000 kPa, x1 = 0.899	0.135	0.15
10000 kPa, x1 = 0.949	–	0.0751
10000 kPa, x1 = 0.951	0.0683	–
